Measurements taken from paper PMC9234962, “Optimization of Peptide Linker-Based Fluorescent Ligands for the Histamine H1 Receptor” (Journal of Medicinal Chemistry, 2022).
Like-named read-outs stand apart in the source and are kept apart here. Square brackets hold non-standard residues; d marks the D form. Peptide text beside a SMILES is read from it. * marks the point of attachment. Propanoyl(3-Pip(4-O-2-BnPh)) = O=C(CCN1CCC(Oc2ccccc2Cc2ccccc2)CC1)*; X3 = Cc1cc(C)n2c1C=C1C=CC(/C=C/c3ccc(OCC(=O)*)cc3)=[N+]1[B-]2(F)F; BODIPY(FL) = CC1=CC(C)=[N+]2C1=Cc1ccc(CCC(=O)*)n1[B-]2(F)F; X2 = O=C(CCC1=[N+]2C(=Cc3ccc(-c4cccs4)n3[B-]2(F)F)C=C1)*; βAla = NCCC(=O)O

Experiments:
Nluc-H1R = Nluc-H1R (Homo sapiens, UniProt P35367); assay: NanoBRET saturation binding assay on Nluc-H1R expressing HEK293T cells; set-up: expressed in transfected cells; conditions: saturation binding curves, whole HEK293T cells; for pKD: non-specific with 10 μM mepyramine, mean ± SEM
Excerpt: Total and non-specific saturation binding curves from NanoBRET saturation binding assay were fitted simultaneously using eq 1: [drawing 4] 1 where Bmax is the maximal specific binding, [B] is the concentration of fluorescent ligand in nM, KD is the equilibrium dissociation constant in nM, M is the slope of the non-specific component, and C is the intercept with the Y axis.

human H1R = target: T1, human H1R (Homo sapiens, UniProt P35367); assay: Ca2+ mobilization assay on human H1R-expressing CHO cells; assay type: cell-based; conditions: Gaddum equation, shift in histamine EC25 with 1 μM antagonist
T1 construct: expressed in transfected cells; host or cells: CHO cells
Method: CHO cells expressing H1R were grown to confluence in black-walled, clear-bottom 96-well plates. On the day of the experiment, media were replaced with 100 μL of HBSS containing […], 2.3 μM Fluo-4AM (Invitrogen), 0.023% Pluronic F-127, 0.5 mM Brilliant Black BN, and 1 μM required fluorescent ligand and the plates incubated for 1 h at 37 °C in the dark. The plates were then placed in the multi-well fluorometric imaging plate reader FlexStation3 (Molecular Devices, Sunnyvale, CA) and HBSS only or HBSS containing the required concentration of histamine was added after 15 s. Fluo-4 fluorescence was measured at 520 nm (excitation at 485 nm) every 1.52 s for 200 s. For each well, the peak maximum–minimum–maximum change in fluorescence value was taken and plotted against concentration of histamine to give a dose–response curve.
Estimated affinity values (pKB) were calculated from the shift in agonist concentration–response curves in the presence of the fluorescent antagonists using the Gaddum equation (7): [drawing 10] 7 where DR (dose ratio) is the ratio of the agonist concentration required to stimulate an identical response in the presence and absence of antagonist, [B]. DR was determined from the EC25 value as there was a decrease in observed maximal efficacy of histamine in the presence of all 10 fluorescent antagonists.

[1] = mean ± SEM, four experiments, read-out: pKB (converted)

T1 sequence (P35367 whole entry): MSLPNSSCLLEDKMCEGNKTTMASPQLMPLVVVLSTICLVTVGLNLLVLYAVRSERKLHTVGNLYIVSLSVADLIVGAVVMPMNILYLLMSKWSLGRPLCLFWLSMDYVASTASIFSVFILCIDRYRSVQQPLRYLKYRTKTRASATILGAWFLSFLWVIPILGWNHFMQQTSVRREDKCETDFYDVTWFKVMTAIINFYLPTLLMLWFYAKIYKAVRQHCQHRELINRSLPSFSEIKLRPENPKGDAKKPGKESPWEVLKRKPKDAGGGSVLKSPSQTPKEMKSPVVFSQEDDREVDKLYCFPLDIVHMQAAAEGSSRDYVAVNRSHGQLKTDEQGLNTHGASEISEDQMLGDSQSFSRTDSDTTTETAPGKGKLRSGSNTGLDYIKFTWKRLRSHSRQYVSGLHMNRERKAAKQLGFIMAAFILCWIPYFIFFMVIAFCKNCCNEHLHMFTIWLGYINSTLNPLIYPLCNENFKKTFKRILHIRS
Nluc-H1R, sequence (P35367 whole entry): as above

Row | SMILES | Kd (Nluc-H1R) | pKD (Nluc-H1R) | Kb (human H1R; [1]) | Kb (human H1R; read-out: KB (converted))
1 | CC(C)[C@H](NC(=O)CCN1CCC(Oc2ccccc2Cc2ccccc2)CC1)C(=O)N[C@@H](CO)C(=O)N[C@@H](CC(N)=O)C(=O)NCCC(=O)N[C@@H](CCCCNC(=O)CCC1=[N+]2C(=Cc3ccc(-c4cccs4)n3[B-]2(F)F)C=C1)C(N)=O [Compound 38c, (S)-N^1-(3-(((S)-1-Amino-6-(3-(5,5-difluoro-7-(thiophen-2-yl)-5H-5λ^4,6λ^4-dipyrrolo[1,2-c:2’,1’-f][1,3,2]diazaborinin-3-yl)propanamido)-1-oxohexan-2-yl)amino)-3-oxopropyl)-2-((S)-2-((S)-2-(3-(4-(2-benzylphenoxy)piperidin-1-yl)propanamido)-3-methylbutanamido)-3-hydroxypropanamido)succinamide] ({Propanoyl(3-Pip(4-O-2-BnPh))}-VSN[βAla]K(X2)-NH2) | 209 nM | 6.68 ± 0.10 |  | 302 nM
2 | Cc1cc(C)n2c1C=C1C=CC(CCC(=O)NCCCC[C@H](NC(=O)CCNC(=O)[C@H](CC(N)=O)NC(=O)[C@H](CO)NC(=O)[C@@H](NC(=O)CCN3CCC(Oc4ccccc4Cc4ccccc4)CC3)C(C)C)C(N)=O)=[N+]1[B-]2(F)F [Compound 38d, (S)-N^1-(3-(((S)-1-Amino-6-(3-(5,5-difluoro-7,9-dimethyl-5H-4λ^4,5λ^4-dipyrrolo[1,2-c:2’,1’-f][1,3,2]diazaborinin-3-yl)propanamido)-1-oxohexan-2-yl)amino)-3-oxopropyl)-2-((S)-2-((S)-2-(3-(4-(2-benzylphenoxy)piperidin-1-yl)propanamido)-3-methylbutanamido)-3-hydroxypropanamido)succinamide] ({Propanoyl(3-Pip(4-O-2-BnPh))}-VSN[βAla]K(BODIPY(FL))-NH2) | 1290 nM | 5.89 ± 0.10 |  | 112 nM
3 | Cc1cc(C)n2c1C=C1C=CC(/C=C/c3ccc(OCC(=O)NCCCC[C@H](NC(=O)CCNC(=O)[C@H](C)NC(=O)[C@H](C)NC(=O)[C@H](Cc4ccccc4)NC(=O)CCN4CCC(Oc5ccccc5Cc5ccccc5)CC4)C(N)=O)cc3)=[N+]1[B-]2(F)F [Compound 39b, (S)-2-((6S,9S,12S)-12-Benzyl-16-(4-(2-benzylphenoxy)piperidin-1-yl)-6,9-dimethyl-5,8,11,14-tetraoxo-4,7,10,13-tetraazahexadecanamido)-6-(2-(4-((E)-2-(5,5-difluoro-7,9-dimethyl-5H-5λ^4,6λ^4-dipyrrolo[1,2-c:2’,1’-f][1,3,2]diazaborinin-3-yl)vinyl)phenoxy)acetamido)hexanamide] ({Propanoyl(3-Pip(4-O-2-BnPh))}-FAA[βAla]K(X3)-NH2) | 44 nM | 7.36 ± 0.03 |  | 102 nM
4 | Cc1cc(C)n2c1C=C1C=CC(CCC(=O)NCCCC[C@H](NC(=O)CCNC(=O)[C@H](C)NC(=O)[C@H](C)NC(=O)[C@H](Cc3ccccc3)NC(=O)CCN3CCC(Oc4ccccc4Cc4ccccc4)CC3)C(N)=O)=[N+]1[B-]2(F)F [Compound 39d, (S)-2-((6S,9S,12S)-12-Benzyl-16-(4-(2-benzylphenoxy)piperidin-1-yl)-6,9-dimethyl-5,8,11,14-tetraoxo-4,7,10,13-tetraazahexadecanamido)-6-(3-(5,5-difluoro-7,9-dimethyl-5H-4λ^4,5λ^4-dipyrrolo[1,2-c:2’,1’-f][1,3,2]diazaborinin-3-yl)propan-amido)hexanamide] ({Propanoyl(3-Pip(4-O-2-BnPh))}-FAA[βAla]K(BODIPY(FL))-NH2) | 1440 nM | 5.84 ± 0.13 | 34.7 nM | 

More lines, in order of falling Kd (Nluc-H1R), values ahead:

Row | Kd (Nluc-H1R) | pKD (Nluc-H1R) | Kb (human H1R; [1]) | Kb (human H1R; read-out: KB (converted)) | SMILES
5 | 2190 nM | 5.66 ± 0.02 |  | 4680 nM | CC(C)[C@H](NC(=O)CCN1CCC(Oc2ccccc2Cc2ccccc2)CC1)C(=O)N[C@@H](CO)C(=O)N[C@@H](CC(N)=O)C(=O)NCCC(=O)N[C@@H](CCCCNC(=O)CCCCC[N+]1=C(/C=C/C=C/C=C2/N(C)c3ccc(S(=O)(=O)[O-])cc3C2(C)C)C(C)(C)c2cc(S(=O)(=O)O)ccc21)C(N)=O [Compound 38f, 1-((5S,8S,11S,18S)-11-(2-Amino-2-oxoethyl)-1-(4-(2-benzylphenoxy)piperidin-1-yl)-18-carbamoyl-8-(hydroxymethyl)-5-isopropyl-3,6,9,12,16,24-hexaoxo-4,7,10,13,17,23-hexaazanonacosan-29-yl)-3,3-dimethyl-2-((1E,3E)-5-((E)-1,3,3-trimethyl-5-sulfonatoindolin-2-ylidene)penta-1,3-dien-1-yl)-3H-indol-1-ium-5-sulfonate]
6 | 2190 nM | 5.66 ± 0.06 |  | 813 nM | C[C@H](NC(=O)[C@H](C)NC(=O)[C@H](Cc1ccccc1)NC(=O)CCN1CCC(Oc2ccccc2Cc2ccccc2)CC1)C(=O)NCCC(=O)N[C@@H](CCCCNC(=O)CCCCC[N+]1=C(/C=C/C=C/C=C2/N(C)c3ccc(S(=O)(=O)[O-])cc3C2(C)C)C(C)(C)c2cc(S(=O)(=O)O)ccc21)C(N)=O [Compound 39f, 1-((5S,8S,11S,18S)-5-Benzyl-1-(4-(2-benzylphenoxy)piperidin-1-yl)-18-carbamoyl-8,11-dimethyl-3,6,9,12,16,24-hexaoxo-4,7,10,13,17,23-hexaazanonacosan-29-yl)-3,3-dimethyl-2-((1E,3E)-5-((E)-1,3,3-trimethyl-5-sulfonatoindolin-2-ylidene)penta-1,3-dien-1-yl)-3H-indol-1-ium-5-sulfonate]
7 | 724 nM | 6.14 ± 0.06 |  | 363 nM | C[C@H](NC(=O)[C@H](C)NC(=O)[C@H](Cc1ccccc1)NC(=O)CCN1CCC(Oc2ccccc2Cc2ccccc2)CC1)C(=O)NCCC(=O)N[C@@H](CCCCNC(=O)CCC1=[N+]2C(=Cc3ccc(-c4cccs4)n3[B-]2(F)F)C=C1)C(N)=O [Compound 39c, (S)-2-((6S,9S,12S)-12-Benzyl-16-(4-(2-benzylphenoxy)piperidin-1-yl)-6,9-dimethyl-5,8,11,14-tetraoxo-4,7,10,13-tetraazahexadecanamido)-6-(3-(5,5-difluoro-7-(thiophen-2-yl)-5H-5λ^4,6λ^4-dipyrrolo[1,2-c:2’,1’-f][1,3,2]diazaborinin-3-yl)propanamido)hexanamide] ({Propanoyl(3-Pip(4-O-2-BnPh))}-FAA[βAla]K(X2)-NH2)
8 | 66 nM | 7.18 ± 0.11 | 110 nM |  | Cc1cc(C)n2c1C=C1C=CC(/C=C/c3ccc(OCC(=O)NCCCC[C@H](NC(=O)CCNC(=O)[C@H](CC(N)=O)NC(=O)[C@H](CO)NC(=O)[C@@H](NC(=O)CCN4CCC(Oc5ccccc5Cc5ccccc5)CC4)C(C)C)C(N)=O)cc3)=[N+]1[B-]2(F)F [Compound 38b, (S)-N^1-(3-(((S)-1-Amino-6-(2-(4-((E)-2-(5,5-difluoro-7,9-dimethyl-5H-5λ^4,6λ^4-dipyrrolo[1,2-c:2’,1’-f][1,3,2]diazaborinin-3-yl)vinyl)phenoxy)acetamido)-1-oxohexan-2-yl)amino)-3-oxopropyl)-2-((S)-2-((S)-2-(3-(4-(2-benzylphenoxy)piperidin-1-yl)propanamido)-3-methylbutanamido)-3-hydroxypropanamido)succinamide] ({Propanoyl(3-Pip(4-O-2-BnPh))}-VSN[βAla]K(X3)-NH2)
